The target of assay [1] is Proto-oncogene tyrosine-protein kinase Src (Homo sapiens) (UniProt P12931). Briefly: Inhibition of interaction between human Src-SH3 domain and PRP2 at 800 uM by fluorescence polarization technique.
Assay [2] has the same target. As to the kind of experiment: Inhibition of interaction between human Src-SH3 domain and PRP2 at 100 uM by fluorescence polarization technique. A general note: Fluorescence polarisation rises when a labelled molecule tumbles more slowly, as on binding a larger partner.

Calls of active or inactive are those of the source. The calls are words filed in the database; no cut-off is given here.

Proto-oncogene tyrosine-protein kinase Src (Homo sapiens), sequence (P12931 2-536 limits assumed): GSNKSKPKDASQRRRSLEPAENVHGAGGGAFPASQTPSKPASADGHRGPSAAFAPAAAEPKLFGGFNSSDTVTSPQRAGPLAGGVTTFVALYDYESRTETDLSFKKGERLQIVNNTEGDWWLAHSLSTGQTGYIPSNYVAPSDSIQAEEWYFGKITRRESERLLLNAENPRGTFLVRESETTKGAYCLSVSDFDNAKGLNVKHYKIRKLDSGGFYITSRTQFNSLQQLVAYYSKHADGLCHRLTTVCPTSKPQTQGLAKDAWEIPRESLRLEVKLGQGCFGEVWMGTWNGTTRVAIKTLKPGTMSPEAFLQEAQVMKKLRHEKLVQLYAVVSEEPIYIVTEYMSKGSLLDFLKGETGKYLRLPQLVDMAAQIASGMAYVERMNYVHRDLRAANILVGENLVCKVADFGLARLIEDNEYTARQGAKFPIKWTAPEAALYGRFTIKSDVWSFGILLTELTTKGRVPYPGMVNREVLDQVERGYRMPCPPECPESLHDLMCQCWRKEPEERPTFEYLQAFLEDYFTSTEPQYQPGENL

For `Cc1cc(NCCNc2ccc3c(c2)OCCO3)c2ccc3ccccc3c2n1`, the result in assay [1] was Active. As usually defined, the inhibition is how much of the control response was suppressed. High values mean a strong effect, low ones a weak effect. The compound `COc1ccc(NCCNc2cc(C)nc3c2ccc2ccccc23)cc1OC` showed an inhibition in assay [2] of 22%. The result in assay [1] was Active.

These data come from ChEMBL document CHEMBL1142315, “In silico screening and biological evaluation of inhibitors of Src-SH3 domain interaction with a proline-rich ligand” (Bioorg Med Chem Lett, 2008).
